In patent US20200330447A1, “CANCER TREATMENT VIA REPOSITIONED TRICYCLIC ANTI-DEPRESSANT-LIKE DRUGS AS ANTI-CANCER AGENTS AND NEW COMBINATIONS OF SUCH DRUGS” (Board of Supervisors of Louisiana State University and …, priority 2015, published 2020):

How the values were obtained:
Assay type in all cases: cell-based
[1] = tested on: A172 cells; assay: Invasive structures in 3D culture
[2] = tested on: U373 glioma cell lines; assay: Lysosome outward movement in U373 cells; conditions: method of FIG. 2
Description: (§1) A172 glioblastoma cells were treated overnight with 5 or 10 μM deptropine or pizotifen or with the deptropine or pizotifen in combination at 5 μM concentration. The next day, media was change to low pHe media containing deptropine or pizotifen and the cells were incubated for an additional 2 h. EIPA is a known inhibitor of lysosomal outward movement and represents the positive control. At the end of the incubation time, cells were fixed and stained for LAMP-1, filamentous actin and nuclei. Representative merged IF images depicting the effect of pHe 7.4, pHe 6.4, DMSO or deptropine and pizotifen on the distribution of lysosomes in A172 glioblastoma cells. On color versions of the Figure, red puncta are lysosomes, blue is nuclei and green is actin. As could be seen, lysosomes appear more peripherally distributed in A172 glioma cells than in cells treated with concentrations of 5 to 10 micromolar deptropine or pizotifen.
In an additional experiment, following the method whose results are shown in FIG. 2 above but with different cells, the broad range and general effectiveness of deptropine and pizotifen is shown beyond just in A172 glioblastoma cells. Specifically, deptropine and pizotifen were applied to U373 glioma cell lines instead of A172 glioblastoma cells.

[3] = tested on: DU145 prostate cancer cells; assay: High content imaging-based screen (Cellomics) for lysosome migration inhibitors; conditions: pH 6.4 media, 2 micrograms per ml, 16 hours
Description: DEVELOPMENT OF A HIGH CONTENT IMAGING-BASED SCREEN: The followings process was followed to identify chemicals that were lysosome migration inhibitors. DU145 prostate cancer cells were seeded in 96 well flat bottom black walled plates at 4,500 cells per well. All compounds and controls were exposed to RPMI bicarbonate buffered media (pH 6.4). RPMI buffered media titrated at pH of 6.4-6.8 was added to column 12 after the media was removed and serves as negative control (low acidic pH so lysosomes move out). […] The 4 compound libraries chosen to screen were the NIH Clinical Collection (450 drugs), Prestwick (1200 drugs), Prestwick phytochemical and the Green Pharma collection (xx drugs). Compounds were diluted with buffered RPMI media to 2 micrograms per ml concentrations. Individual compounds to be screened were added robotically as a single compound per well through columns 2-11. Plates were incubated at 37 degrees in 5% CO2 for 16 hours then the medium was removed and the cells were fixed with 4% cold paraformaldehyde (Sigma-Aldrich) for 20 minutes at 4 degrees. Fixed cells were washed once with PBS. To stain lysosomes, cells were incubated for 1 hour with LAMP1 antibody (H4A3) diluted in BSP (containing 0.25% BSA and 0.1% saponin in PBS) at 1/200. Cells were then washed with PBS 3 times then incubated for 1 hour with Dylight Donkey anti-mouse diluted at 1/200 in BSP. To stain the nucleus, cells were then washed with PBS 3 times and incubated for 20 minutes with 1×DAPI diluted in PBS. DAPI was washed off with PBS and cells were maintained in PBS for the duration of the screening process. Plates were mounted and read in a Cellomics Arrayscan automated fluorescence imager. The Cellomics platform allows for high content throughput screening by combining fluorescence microscopy with a multi-parameter image analysis. Cells were photographed using 20× objective in 2 fluorescent channels. A total of 15 different fields in each well, and at least 300 cells were imaged per well. The biocompartmental analysis algorithm was used to identify each cell by its nucleus (channel 1 recognized by the DAPI stain) and to generate a cytoplasmic mask (ring) of 12 pixels width in which the inner ring was 6 pixels away from the nucleus. The algorithm calculates the number of lysosomes inside the ring as indicated by fluorescent LAMP-1 positive puncta in channel 2 as a mean ring spot count. Therefore, when lysosomes move away from the nucleus and disperse throughout the cytoplasm, the number of spots representing lysosomes inside the cytoplasmic ring increases (low pH conditions). By contrast, lysosomes cluster near the nucleus the numbers of spot inside the cytoplasmic ring decreases (EIPA treated).
Z′-factor is a simple statistical coefficient used to assess performance and quality of the assay in high-throughput screening. It is calculated with the formula: Z′=1-(3σct+3σcb)/|μct−μcb|, where p indicates mean, a represents standard deviation, “ct” indicates the positive control, “cb” indicates the negative control. […] If the Z′ is more than 0.5, the assay is considered to be high quality assay.
The Z′ factor of the assay was determined from the EIPA (positive control) and low pH (negative control). Experiments were run in duplicate. Only plates with positive Z′ factor was used for analysis.

[4] = tested on: A172 glioblastoma cells; assay: Acidic media pH induced lysosome distribution, LAMP-1 IF imaging; conditions: for acidic media induced trafficking of lysosomes to the cell periphery: 5 or 10 μM overnight, then low pHe media with drug 2 h; for lysosomal outward movement, early time: 5 or 10 μM, 2 h then low pHe media with drugs 2 h (4 hours); for inward movement of lysosomes, single drug: one micromolar alone
Description: as §1
Cells were treated as described above with FIG. 2 but included a concentration of 0.1 micromolar and 1 micromolar deptropine and pizotifen.
Turning to FIG. 7, an additional aspect of this technology is how quickly deptropine and pizotifen act to move lysosomes towards the nucleus. […] A172 glioblastoma cells were treated with the 5 or 10 μM deptropine or pizofifen for 2 h and then with low pHe media containing the drugs for an additional 2 hours. At the end of incubation time, cells were fixed and stained for LAMP-1, filamentous actin, and nuclei. Representative merged IF images depicting the effect of DMSO, 5 and 10 μM deptropine or pizotifen upon 4 hours on the distribution of lysosomes, colored red in color images, in A172 glioblastoma cells. Also shown in color images are actin, colored green, and nuclei, colored blue.

[5] = tested on: A172 glioblastoma cells; assay: Wound motility (migration) assay, Incucyte; conditions: for motility: 5 or 10 μM, 8 h prior to wounding; for motility (percent migration), single drug: either drug alone at 10 μM
Description: An important aspect of this technology is the showing that deptropine and pizotifen block tumor invasion using 3D assays. […] For this experiment A172 glioblastoma cells were treated with 5 or 10 μM deptropine or pizotifen or drug mix at 5 μM concentration for 8 h prior to the wounding and the addition of matrigel. Upon wounding, cells were allowed to migrate or invade through matrigel in the presence of DMSO, 5 or 10 μM deptropine or pizotifen or the drug mix at 5 μM concentration. EIPA, a known inhibitor of lysosomal outward movement, is the positive control. Motility and invasion were calculated by Incucyte platform that acquires real time images of invasion and motility and calculate the relative wound density percentage at different time points. Percent migration (FIG. 6A) or invasion (FIG. 6B) through matrigel in A172 glioblastoma cells in the presence of DMSO, 5 or 10 μM deptropine or pizotifen or the drug mix at 5 μM concentration. Error bars represent s.e.m. of 5 separate experiments. # statistical significance, p<0.001, versus both 1% FBS and DMSO; *, p<0.01 versus both 1% FBS and DMSO

SMILES | number of invasive structures formed in 3D culture [1] | lysosome outward movement [2] | hit in screen for lysosome migration inhibitors (mean ring spot count) [3] | acidic media induced trafficking of lysosomes to the cell periphery [4] | lysosomal outward movement, early time [4] | inward movement of lysosomes, single drug [4] | motility [5] | motility (percent migration), single drug [5]
CN1CCC(=C2c3ccccc3CCc3sccc32)CC1 [pizotifen, 4-(1-methyl-4-piperidylidine)-9,10-dihydro-4H-benzo-[4,5]cyclohepta[1,2]-thiophene] | effectively reduce the number of invasive structures | block lysosome outward movement | hits | blocks acidic media induced trafficking of lysosomes to the cell periphery | prevent lysosomal outward movement | only a marginal effect | decrease | reduces motility but to a level that is determined to be significant
CN1[C@@H]2CC[C@H]1C[C@@H](OC1c3ccccc3CCc3ccccc31)C2 [deptropine, 3a-[(10, 11-dihydro-5H-dibenzo[a,d]cyclohepten-5-yl)oxy]1aH,5aH-tropane] | effectively reduce the number of invasive structures | block lysosome outward movement | hits | blocks acidic media induced trafficking of lysosomes to the cell periphery | prevent lysosomal outward movement | only a marginal effect | decrease | reduces motility but to a level that is determined to be significant
